pIC50: −log10 of the molar value.
Molecular target: T1, Recombinant human HSD17B13 enzyme (Homo sapiens, UniProt Q7Z5P4)
T1 sequence (Q7Z5P4 20-300): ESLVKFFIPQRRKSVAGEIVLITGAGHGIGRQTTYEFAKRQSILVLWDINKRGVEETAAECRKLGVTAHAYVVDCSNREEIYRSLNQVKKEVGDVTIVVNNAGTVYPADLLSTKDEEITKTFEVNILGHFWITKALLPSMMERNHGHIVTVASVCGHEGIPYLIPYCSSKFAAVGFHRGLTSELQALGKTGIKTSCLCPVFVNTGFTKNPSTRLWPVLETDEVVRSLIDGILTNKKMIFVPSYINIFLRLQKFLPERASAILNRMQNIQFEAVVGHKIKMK
Assay: HSD17b13 NAD(P)H-Glo biochemical assay
Conditions: for pIC50: 50 uM estradiol, 1 mM NAD+, NAD(P)H-Glo luminescence, read-out: HSD17β13 IC50
Method: Example B-1: HSD17b13 NAD(P)H-Glo Biochemical Assay
Recombinant human HSD17B13 enzyme. Substrate: estradiol (Sigma β-Estradiol E8875), 100 mM in DMSO. Cofactor: NAD+ Grade I free acid (Sigma 10127965001), 20 mM in H2O. Assay buffer final concentration: 20 mM Tris pH7.4 with 0.002% Tween-20 and 0.02% BSA. Assay performed in 384 well solid bottom plate (Corning 3570). Enzymatic activity detected by NAD(P)H-Glo™ Detection System (Promega G9062).
Inhibitor compounds were serially diluted in DMSO and then further diluted in assay buffer to a 10× concentration consisting of 1% DMSO.
HSD17b13 enzyme was diluted in 1× assay buffer to the desired enzyme concentration based on the specific activity of the enzyme lot. 20 uL of diluted enzyme was added to each well along with 2.5 uL of 10× inhibitor solution. Assay plate was incubated at RT for 20 minutes, and then 2.5 uL of a 10× substrate/cofactor mix was added to each well for a final concentration of 50 uM estradiol and 1 mM NAD+. Assay plate was incubated at 37° C. for 3 hours. NAD(P)H-Glo™ Detection System reagents were prepared according to manufacturer's specifications, and 25 uL was added to each well. After incubating for 1 hour at RT, luminescence was measured.

Structure (SMILES) | pIC50 | also measured
COC1(C)CN(c2ccc(-n3ncc4cc(F)c(O)c(F)c43)cc2)C1 [Compound 20.19, 5,7-Difluoro-1-(4-(3-methoxy-3-methylazetidin-1-yl)phenyl)-1H-indazol-6-ol] | > 7.00 | –
CC1(C)CCN(c2cnc(-n3nnc4cc(F)c(O)c(F)c43)cn2)CC1 [Compound 26.17, 1-(5-(4,4-Dimethylpiperidin-1-yl)pyrazin-2-yl)-5,7-difluoro-1H-benzo[d][1,2,3]triazol-6-ol] | > 7.00 | –
Cc1ccc(-c2ccc(-n3ncc4cc(F)c(O)cc43)cc2)cc1 [Compound 13.11, 5-Fluoro-1-(4′-methyl-[1,1′-biphenyl]-4-yl)-1H-indazol-6-ol] | 6.00 to 7.00 | –
Oc1ccc(-c2ccc(-n3ncc4cc(F)c(O)cc43)cn2)cc1 [Compound 15.2, 5-Fluoro-1-(6-(4-hydroxyphenyl)pyridin-3-yl)-1H-indazol-6-ol] | 6.00 to 7.00 | –
CC1(C)CN(c2ccc(-n3ncc4cc(F)c(O)c(F)c43)cc2)CC(C)(C)O1 [Compound 20.12, 5,7-Difluoro-1-(4-(2,2,6,6-tetramethylmorpholino)phenyl)-1H-indazol-6-ol] | > 7.00 | –
Oc1c(F)cc2cnn(-c3ccc(N4CCCC4)cc3)c2c1F [Compound 23.10, 5,7-Difluoro-1-(4-(pyrrolidin-1-yl)phenyl)-1H-indazol-6-ol] | > 7.00 | –
CC1(C)CCN(c2ccc(-n3c(=O)oc4cc(F)c(O)c(F)c43)cc2)CC1 [Compound 39, 3-(4-(4,4-Dimethylpiperidin-1-yl)phenyl)-4,6-difluoro-5-hydroxybenzo[d]oxazol-2(3H)-one] | > 7.00 | –
Oc1c(F)cc2nnn(-c3cnc(N4CC5(CCOCC5)C4)cn3)c2c1F [Compound 26.18, 1-(5-(7-Oxa-2-azaspiro[3.5]nonan-2-yl)pyrazin-2-yl)-5,7-difluoro-1H-benzo[d][1,2,3]triazol-6-ol] | 6.00 to 7.00 | –
CS(=O)(=O)N1CCCC(c2ccc(-n3ncc4cc(F)c(O)c(F)c43)cc2)C1 (stereo not drawn) [Compound 30.1, 5,7-Difluoro-1-(4-(1-(methylsulfonyl)piperidin-3-yl)phenyl)-1H-indazol-6-ol] | > 7.00 | –
Oc1c(F)cc2cnn(-c3ccc(-c4ccc(Cl)cc4)nc3)c2c1F [Compound 18.2, 1-(6-(4-Chlorophenyl)pyridin-3-yl)-5,7-difluoro-1H-indazol-6-ol] | > 7.00 | –
CC1(C)CCN(c2ccc(N3C(=O)C(=O)c4cc(F)c(O)c(F)c43)cc2)CC1 [Compound 7.2, 1-(4-(4,4-Dimethylpiperidin-1-yl)phenyl)-5,7-difluoro-6-hydroxyindoline-2,3-dione] | 6.00 to 7.00 | –
Oc1cc2c(cnn2-c2ccc(-c3ccncc3)cc2)cc1F [Compound 13.15, 5-Fluoro-1-(4-(pyridin-4-yl)phenyl)-1H-indazol-6-ol] | – | inhibition at 30 µM (3 h, at 30 uM compound, read-out: HSD17β13 % at 30 uM): 40%
CC1(C)CCN(c2ccc(-n3c(=O)sc4cc(F)c(O)c(F)c43)cc2)CC1 [Compound 7.3, 3-(4-(4,4-Dimethylpiperidin-1-yl)phenyl)-4,6-difluoro-5-hydroxybenzo[d]thiazol-2(3H)-one] | 6.00 to 7.00 | –
Oc1cccc(-c2ccc(-n3nc(F)c4cc(F)c(O)c(F)c43)cc2)c1 [Compound 5.4, 3,5,7-Trifluoro-1-(3′-hydroxy-[1,1′-biphenyl]-4-yl)-1H-indazol-6-ol] | 6.00 to 7.00 | –
CC1(C)CN(c2ccc(-n3ncc4cc(F)c(O)c(F)c43)cc2)CCO1 [Compound 20.5, 1-(4-(2,2-Dimethylmorpholino)phenyl)-5,7-difluoro-1H-indazol-6-ol] | > 7.00 | –
Oc1c(F)cc2cnn(-c3ccc(C4CCOCC4)cc3)c2c1F [Compound 27.6, 5,7-Difluoro-1-(4-(tetrahydro-2H-pyran-4-yl)phenyl)-1H-indazol-6-ol] | > 7.00 | –
Oc1c(F)cc2cnn(-c3ccc(N4CC5(CCOCC5)C4)cc3)c2c1F [Compound 23.26, 1-(4-(7-Oxa-2-azaspiro[3.5]nonan-2-yl)phenyl)-5,7-difluoro-1H-indazol-6-ol] | > 7.00 | –
Oc1cc(F)c2cnn(-c3ccc(-c4cccc(O)c4Br)cc3)c2c1 [Compound 2.9, 1-(2′-Bromo-3′-hydroxy-[1,1′-biphenyl]-4-yl)-4-fluoro-1H-indazol-6-ol] | 4.52 to 6.00 | –

Structure (SMILES) | pIC50 | also measured
C[C@H]1CN(c2ccc(-n3ncc4cc(F)c(O)c(F)c43)cc2)C[C@H](C)O1 (relative stereo) [Compound 20, 1-(4-(trans-2,6-Dimethylmorpholino)phenyl)-5,7-difluoro-1H-indazol-6-ol] | > 7.00 | –
Cc1c(O)c(F)cc2cnn(-c3ccc(N4CCN(S(C)(=O)=O)CC4)cc3)c12 [Compound 24.12, 5-Fluoro-7-methyl-1-(4-(4-(methylsulfonyl)piperazin-1-yl)phenyl)-1H-indazol-6-ol] | – | inhibition at 10 µM (3 h, at 10 uM compound, read-out: HSD17β13 % at 10 uM): 35%
COC1CCN(c2ccc(-n3ncc4cc(F)c(O)c(F)c43)cc2)C1 (stereo not drawn) [Compound 22.5, 5,7-Difluoro-1-(4-(3-methoxypyrrolidin-1-yl)phenyl)-1H-indazol-6-ol] | > 7.00 | –
Cn1c(=O)n(-c2ccc(N3CCC(C)(C)CC3)cc2)c2c(F)c(O)c(F)cc21 [Compound 21.6, 3-(4-(4,4-Dimethylpiperidin-1-yl)phenyl)-4,6-difluoro-5-hydroxy-1-methyl-1H-benzo[d]imidazol-2(3H)-one] | > 7.00 | –
CC1(C)CCN(c2ccc(-n3c(=O)n(CO)c4cc(F)c(O)c(F)c43)cc2)CC1 [Compound 21.12, 3-(4-(4,4-Dimethylpiperidin-1-yl)phenyl)-4,6-difluoro-5-hydroxy-1-(hydroxymethyl)-1H-benzo[d]imidazol-2(3H)-one] | > 7.00 | –
Oc1cccc(-c2ccc(-n3nc(F)c4cc(F)c(O)cc43)cc2)c1 [Compound 5.3, 3,5-Difluoro-1-(3′-hydroxy-[1,1′-biphenyl]-4-yl)-1H-indazol-6-ol] | 6.00 to 7.00 | –
OCc1ccc(-c2ccc(-n3ncc4cc(F)c(O)cc43)cc2)cc1 [Compound 13.23, 5-Fluoro-1-(4′-(hydroxymethyl)-[1,1′-biphenyl]-4-yl)-1H-indazol-6-ol] | 6.00 to 7.00 | –
N#Cc1ccccc1-c1ccc(-n2ncc3cc(F)c(O)cc32)cc1 [Compound 13.16, 4′-(5-Fluoro-6-hydroxy-1H-indazol-1-yl)-[1,1′-biphenyl]-2-carbonitrile] | 6.00 to 7.00 | –
CS(=O)(=O)N1CCN(c2ccc(-n3ncc4cc(F)c(O)cc43)cc2)CC1 [Compound 21.2, 5-Fluoro-1-(4-(4-(methylsulfonyl)piperazin-1-yl)phenyl)-1H-indazol-6-ol] | 4.52 to 6.00 | –
Oc1c(F)cc2nnn(-c3ccc(N4CC5(CCOCC5)C4)cn3)c2c1F [Compound 26.15, 1-(5-(7-Oxa-2-azaspiro[3.5]nonan-2-yl)pyridin-2-yl)-5,7-difluoro-1H-benzo[d][1,2,3]triazol-6-ol] | 6.00 to 7.00 | –
CS(=O)(=O)Nc1cccc(-c2ccc(-n3ncc4cc(F)c(O)cc43)cc2)c1 [Compound 13.33, N-(4′-(5-Fluoro-6-hydroxy-1H-indazol-1-yl)-[1,1′-biphenyl]-3-yl)methanesulfonamide] | 4.52 to 6.00 | –
Cc1ccccc1-c1ccc(-n2ncc3cc(F)c(O)cc32)cc1 [Compound 13.9, 5-Fluoro-1-(2′-methyl-[1,1′-biphenyl]-4-yl)-1H-indazol-6-ol] | 6.00 to 7.00 | –
CC1(C)CCN(c2ccc(-n3c(=O)[nH]c4cc(F)c(O)c(F)c43)cc2)CC1 [Compound 11, 1-(4-(4,4-Dimethylpiperidin-1-yl)phenyl)-5,7-difluoro-6-hydroxy-1H-benzo[d]imidazol-2(3H)-one] | > 7.00 | –
CC1(C)CCN(c2ccc(-n3ncc4c(C(F)(F)F)c(F)c(O)nc43)cc2)CC1 [Compound 7.4, 1-(4-(4,4-Dimethylpiperidin-1-yl)phenyl)-5-fluoro-4-(trifluoromethyl)-1H-pyrazolo[3,4-b]pyridin-6-ol] | 4.52 to 6.00 | –
C[C@@H]1CN(c2ccc(-n3ncc4cc(F)c(O)c(F)c43)cc2)C[C@@H](C)O1 [Compound 24.10, 1-(4-((2R,6R)-2,6-Dimethylmorpholino)phenyl)-5,7-difluoro-1H-indazol-6-ol] | > 7.00 | –
CC(C)C1(C)CCN(c2ccc(-n3ncc4cc(F)c(O)c(F)c43)cc2)CC1 [Compound 24.6, 5,7-Difluoro-1-(4-(4-isopropyl-4-methylpiperidin-1-yl)phenyl)-1H-indazol-6-ol] | > 7.00 | –
CC1(C)CCN(c2ccc(-n3nnc4c(C(F)(F)F)c(F)c(O)cc43)cc2)CC1 [Compound 41.1, 1-(4-(4,4-Dimethylpiperidin-1-yl)phenyl)-5-fluoro-4-(trifluoromethyl)-1H-benzo[d][1,2,3]triazol-6-ol] | 6.00 to 7.00 | –
CC(C)C1CN(c2ccc(-n3ncc4cc(F)c(O)c(F)c43)cc2)C1 [Compound 24.3, 5,7-Difluoro-1-(4-(3-isopropylazetidin-1-yl)phenyl)-1H-indazol-6-ol] | > 7.00 | –

Reference: patent US20240083853A1, “HSD17B13 INHIBITORS AND USES THEREOF” (FL2022-001, Inc., priority 2020, published 2024)
